Results from patent US9297048B2, “Antibiotic resistance profile for Neisseria gonorrhoeae and use of same in diagnosis and treatment of gonorrhea” (Medical Diagnostic Laboratories, LLC, priority 2010, dated 2016).
Read-outs that look alike come from different tables or passages of the source.

Columns and labels:
[1] = system: Neisseria gonorrhoeae strain ATCC 19424; experiment: Neisseria gonorrhoeae antibiotic resistance panel assay (multiplex PCR + allele-specific primer extension); conditions: no mutations/genetic markers detected
Excerpt: (§1) FIG. 1 is a flow chart summarizing the overall steps for our antibiotic resistance assay. Note that the assay involves multiplex PCRs, followed by allele-specific primer extensions and detection means (e.g., capillary electrophoresis, gel electrophoresis or DNA micro array).
(§2) DNA was isolated from either cells obtained from ATCC or clinical samples (e.g., cervical swab) using standard protocols (i.e., guanidine thiocyanate extraction). Multiplex PCR primers were designed using Beacon Designer software v5.0 (Premier Biosoft, CA). The choice of primers was determined using several parameters including primer length, primer melting temperature, primer annealing temperature and GC content. These primers were selected to avoid hairpin and primer-dimer formation (i.e., avoid possible non-specific hybridization). In our assay, we performed four (4) multiplex PCR. This permits a rapid amplification of genes via multiplex PCRs that lack interference.
(§3) Using the selected primers (Example 4), we performed multiplex allele-specific primer extension reactions. The allele-specific primer extension reaction was performed in a single vessel, which contained a total volume of 20 μl. The multiplex allele-specific reactions contained 1×PCR buffer (Invitrogen, CA), 1.25 mM MgCl2, 100 nM of each primer, 5 μM dATP, dTTP, dGTP (Invitrogen, CA), 5 μM biotin-dCTP (Invitrogen, CA), 1 U of Tsp DNA polymerase (Invitrogen, CA), and 5 μl of purified multiplex PCR products from all four (4) multiplex PCRs as templates.
(§4) Thermal cycling conditions for extension reactions were performed in a Biometra 3.0 PCR System (Biometra, Germany) programmed for an initial cycle of 1 min at 95° C. followed by 35 cycles of 30 sec at 95° C., 30 sec at 55° C., and 30 sec at 72° C. A final 10 min extension step was performed at 72° C.
(§5) Detection of allele-specific extended primers is indicative of the presence of SNP in the genes examined. Detection of allele-specific extended primers can be achieved by several methodologies. This includes gel electrophoresis, capillary electrophoresis, as well as DNA microarray. In this particular example, we illustrated the use of a DNA microarray. The working principle of a DNA microarray involves the use of microspheres to hybridize and sort out the allele-specific extended primers, and followed by their subsequent detection using an array reader. The presence of fluorescence is indicative of the presence of an allele-specific extended primer, which in turn is indicative of the presence of a SNP in the gene.
(§6) Extended allele-specific primer hybridizations were performed using oligonucleotide-labeled xMAP flow cytometric microspheres (Luminex Corp, TX) in a hybridization buffer containing 0.2 M NaCl, 0.08% sodium lauroylsarcosine, 0.1 M Tris-HCl, pH 8.0, and 4 mM EDTA pH 8.0. Reactions were carried out in a Biometra 3.0 PCR System (Biometra, Germany) programmed for a 3 min melting at 95° C. and a 15 min hybridization at 37° C.
(§7) Sorting of allele-specific extended primers hybridized to xMAP microspheres was performed using a Bio-Plex 200 (Bio-Rad, CA) flow cytometry instrument.
(§8) 1 μl Streptavidin R-phycoerythrin conjugate (SAPE) and 250 μl 1×NaCl hybridization buffer was added to each sorted xMAP microsphere. Microspheres hybridized to allele-specific extended primers containing biotin-dCTP fluoresce and were detected using the Bio-Plex 200 array reader.
(§9) Using our antibiotic resistance panel assay, we examined the antibiotic resistance profile in these six (6) Neisseria gonorrhoeae strains. The results of the panel assay are presented in graphical format which includes 30 genetic markers (i.e., 28 point mutations in eight (8) chromosomal genes in Neisseria gonorrhoeae, two (2) plasmid genes, as well as 17 alleles in controls). Normal alleles are shown by white bars, mutant alleles, confirming resistance, are shown by black bars (See, FIGS. 3-8). […]

[2] = system: Neisseria gonorrhoeae strain ATCC 27628; experiment: as above; conditions: no mutations/genetic markers detected
Excerpt: as §1, §2, §3, §4, §5, §6, §7, §8, §9

[3] = system: Neisseria gonorrhoeae strain ATCC 31426; experiment: as above; conditions: concluded from mutations/genetic markers detected
Excerpt: as §1, §2, §3, §4, §5, §6, §7, §8, §9

[4] = system: Neisseria gonorrhoeae strain ATCC 49981; experiment: as above; conditions: concluded from mutations/genetic markers detected
Excerpt: as §1, §2, §3, §4, §5, §6, §7, §8, §9

[5] = system: Neisseria gonorrhoeae from clinical sample 1; experiment: Antibiotic resistance panel assay on cervicovaginal swab; conditions: mutations in penA, ponA, porB, mtrR, rpsJ
Excerpt: (§10) Cervicovaginal swabs were obtained using OneSwab® technology.
The presence of Neisseria gonorrhoeae in all three (3) clinical samples were confirmed using our panel assay in which porA was used as a Neisseria gonorrhoeae species-specific marker.

[6] = system: Neisseria gonorrhoeae from clinical sample 2; experiment: as above; conditions: mutations in penA, gyrA, ponA, parC, porB, mtrR, rpsJ
Excerpt: as §10

[7] = system: Neisseria gonorrhoeae isolates containing mosaic penA; conditions: cited from earlier work
[8] = system: Neisseria gonorrhoeae strain ATCC 31953; experiment: Neisseria gonorrhoeae antibiotic resistance panel assay (multiplex PCR + allele-specific primer extension); conditions: concluded from mutations/genetic markers detected
Excerpt: as §1, §2, §3, §4, §5, §6, §7, §8, §9

[9] = system: Neisseria gonorrhoeae strain ATCC 49226; experiment: as above; conditions: concluded from mutations/genetic markers detected
Excerpt: as §1, §2, §3, §4, §5, §6, §7, §8, §9

[10] = system: Neisseria gonorrhoeae from clinical sample 3; experiment: Antibiotic resistance panel assay on cervicovaginal swab; conditions: mutations in penA and rpsJ

With `CC[C@H]1OC(=O)[C@H](C)[C@@H](O[C@H]2C[C@@](C)(OC)[C@@H](O)[C@H](C)O2)[C@H](C)[C@@H](O[C@@H]2O[C@H](C)C[C@H](N(C)C)[C@H]2O)[C@](C)(O)C[C@@H](C)CN(C)[C@H](C)[C@@H](O)[C@]1(C)O` [azithromycin] the “Antibiotic Resistance Profile Using our Assay” value [1] was “susceptible”, the “Antibiotic Resistance Profile Using our Assay” value [2] was “susceptible” and the “Antibiotic Resistance Profile Using our Assay” value [3] was “resistant”. For the same molecule, the “Antibiotic Resistance Profile Using our Assay” value [4] was “resistant”, the “level of antibiotic resistance implied by panel assay” value [5] was “intermediate level of antibiotic resistance” and the “level of resistance implied by panel assay” value (from here on “level of resistance implied”) [6] was “intermediate level of resistance”.

For `CO/N=C(\C(=O)N[C@@H]1C(=O)N2C(C(=O)O)=C(CSc3nc(=O)c(=O)[nH]n3C)CS[C@H]12)c1csc(N)n1` [ceftriaxone], the MICs ([7]; three of five mosaic penA isolates containing the G545S C-terminal mutation) is given as “elevated MICs” and the MICs ([7]; two mosaic penA isolates without the G545S C-terminal mutation) is given as “wild-type MICs”.

In the case of `O=C(O)c1cn(C2CC2)c2cc(N3CCNCC3)c(F)cc2c1=O` [ciprofloxacin], the “Antibiotic Resistance Profile Using our Assay” value [1] is reported as “susceptible”, the “Antibiotic Resistance Profile Using our Assay” value [2] is reported as “susceptible” and the “Antibiotic Resistance Profile Using our Assay” value [3] is reported as “resistant”. For the same molecule, the “Antibiotic Resistance Profile Using our Assay” value [8] was “resistant” and the “Antibiotic Resistance Profile Using our Assay” value [4] was “resistant”.

In the case of `CN[C@@H]1[C@H](O)[C@H](NC)[C@H]2O[C@@]3(O)C(=O)C[C@@H](C)O[C@H]3O[C@@H]2[C@H]1O` [spectinomycin], the “Antibiotic Resistance Profile Using our Assay” value [1] is reported as “susceptible” and the “Antibiotic Resistance Profile Using our Assay” value [2] is reported as “susceptible”.

With penicillin the “Antibiotic Resistance Profile Using our Assay” value [1] was “susceptible”, the “Antibiotic Resistance Profile Using our Assay” value [2] was “susceptible” and the “Antibiotic Resistance Profile Using our Assay” value [3] was “resistant”. The “Antibiotic Resistance Profile Using our Assay” value [9] was “resistant”, the “Antibiotic Resistance Profile Using our Assay” value [4] was “resistant” and the “level of antibiotic resistance implied by panel assay” value [5] was “intermediate level of antibiotic resistance”. The “level of resistance implied” value [6] was “high level of resistance” and the “level of resistance implied” value [10] was “low level of resistance”.
